Experimental findings from patent US20100292222A1, “CHEMICAL COMPOUNDS 751” (ASTRAZENECA AB, priority 2009, published 2010) are described below.

This assay addresses T1, Androgen Receptor (AR) (Homo sapiens, UniProt P10275, T878A).
T1 construct: cell based immuno-fluorescence assay using the LNCaP prostate epithelial cell line; host or cells: LNCaP clone FGC prostate carcinoma cells
T1 sequence (P10275 1-920 T878A): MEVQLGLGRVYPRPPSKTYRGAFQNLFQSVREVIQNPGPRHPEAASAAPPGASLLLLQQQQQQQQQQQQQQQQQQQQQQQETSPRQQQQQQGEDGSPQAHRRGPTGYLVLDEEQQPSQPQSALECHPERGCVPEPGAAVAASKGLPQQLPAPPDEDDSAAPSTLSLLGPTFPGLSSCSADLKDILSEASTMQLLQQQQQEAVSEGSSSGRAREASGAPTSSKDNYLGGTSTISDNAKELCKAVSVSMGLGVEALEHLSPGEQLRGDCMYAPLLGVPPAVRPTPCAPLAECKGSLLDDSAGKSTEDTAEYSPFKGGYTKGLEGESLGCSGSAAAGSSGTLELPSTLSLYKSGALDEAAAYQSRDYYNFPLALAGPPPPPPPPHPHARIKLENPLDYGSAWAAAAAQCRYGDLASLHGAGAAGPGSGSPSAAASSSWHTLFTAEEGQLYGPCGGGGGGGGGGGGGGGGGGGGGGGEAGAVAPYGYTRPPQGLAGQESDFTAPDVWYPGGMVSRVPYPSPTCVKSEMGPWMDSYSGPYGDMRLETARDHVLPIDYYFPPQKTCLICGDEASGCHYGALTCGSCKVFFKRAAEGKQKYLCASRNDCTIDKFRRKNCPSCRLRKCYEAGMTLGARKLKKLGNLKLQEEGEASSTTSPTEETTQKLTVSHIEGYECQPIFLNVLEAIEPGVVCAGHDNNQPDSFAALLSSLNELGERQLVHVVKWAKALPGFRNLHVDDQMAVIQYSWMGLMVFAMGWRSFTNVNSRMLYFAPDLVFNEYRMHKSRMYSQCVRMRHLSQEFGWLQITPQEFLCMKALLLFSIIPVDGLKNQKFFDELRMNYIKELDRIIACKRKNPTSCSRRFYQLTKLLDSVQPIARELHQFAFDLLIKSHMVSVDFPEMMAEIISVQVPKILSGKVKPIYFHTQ
In words: LNCaP Androgen Receptor Down-Regulation Cell Assay. Type of assay: cell-based. Conditions: LNCaP prostate carcinoma cell line; 20-22 hours incubation; immunofluorescence; 50% reduction of the AR signal.

With `CC(=O)N1CCCN(CCOc2ccc(C3(O)CCN(c4ccc5nnc(C(F)(F)F)n5n4)CC3)c(F)c2)CC1` [Example 41, 4-{4-[2-(4-acetyl-1,4-diazepan-1-yl)ethoxy]-2-fluorophenyl}-1-[3-(trifluoromethyl)[1,2,4]triazolo[4,3-b]pyridazin-6-yl]piperidin-4-ol], the IC50 turned out to be 36 nM.
For `CN1CCN(CCCOc2ccc(C3(O)CCN(c4ccc5nnc(C(F)(F)F)n5n4)CC3)c(F)c2)CC1=O` [Example 42, 4-[3-(3-fluoro-4-{4-hydroxy-1-[3-(trifluoromethyl)[1,2,4]triazolo[4,3-b]pyridazin-6-yl]piperidin-4-yl}phenoxy)propyl]-1-methylpiperazin-2-one] the value was 170 nM.

One may read the IC50 as the concentration at which inhibition is half-maximal.
